According to patent US12269816B2, “Benzothiophene compound, preparation method therefor and use thereof” (SICHUAN KELUN-BIOTECH BIOPHARMACEUTICAL CO., LTD., priority 2019, dated 2025):

Key:
[1] = test system: STING-mediated interferon (IFN) signal reporter gene in THP1-Blue™ ISG cells; assay: STING-mediated interferon (IFN) signal SEAP reporter gene assay in THP1-Blue ISG cells; format: cell-based, human; settings: for EC50: Homo sapiens, 16 h incubation, SEAP reporter read at OD620nm; for Emax (OD620nm): highest OD620nm value generated by stimulation of the compound, 16 h; for agonistic effect on the STING-mediated Interferon (IFN) signal pathway: result in words
From the text: In this experiment, the activity of the SEAP (secreted embryonic alkaline phosphatase) reporter gene regulated by the IFN regulatory factor (interferon regulatory factor) was detected in the THP1-Blue™ ISG cells (InvivoGen) to evaluate the agonistic effect of the compounds to be tested on the STING-mediated IFN signal pathway at the cellular level.
The THP1-Blue™ ISG cells (InvivoGen) in the logarithmic phase were centrifuged, and resuspended in a cell culture solution to a density of 2×10^6 cells/ml. The cell suspension was inoculated in a 96-well cell culture plate (Corning) at 50 μL/well. The mother liquor of the compound to be tested was gradiently diluted with a cell culture solution to obtain a 2× working concentration diluted solution (control compounds 1 and 2 were diluted at a 3-fold gradient: 200, 66.67, 22.22, 7.41, 2.47, 0.82, 0.27 and 0 μM; compounds 1, 2, 4, 6, 8, and 23 were diluted at a 8-fold gradient: 60, 7.5, 0.94, 0.12, 0.015, 0.0018, 0.00023 and 0 μM; and compounds 3 and 5 were diluted at a 10-fold gradient: 10, 1, 0.1, 0.01, 0.001, 0.0001, 0.00001 and 0 μM). The 2× working concentration diluted solution of the compound was added into a 96-well plate (50 μl of the culture solution containing 2% DMSO was added into the negative control well) at 50 μL/well. The culture plate was then placed in a cell incubator, and incubated for 16 h. After the cell incubation, 10 μL of the cell culture supernatant was transferred to a 96-well plate, and a QUANTI-Blue (InvivoGen) solution was added at 90 μL/well. The cells were incubated at 37° C. for 3 h. The absorbance at 620 nm (OD620nm) was read with a microplate reader.
In the table, EC50 refers to the concentration of a compound when ODM620nm value generated by stimulation of the compound reaches half of Emax; and Emax refers to the highest OD620nm value generated by stimulation of the compound.

[2] = test system: STING and its downstream proteins TBK1 and IRF3 in Raw264.7 cells; assay: Western blotting of phosphorylation of STING signal pathway proteins in mouse Raw264.7 cells; format: cell-based; settings: 3 hours, protein blotting, FIGS. 6-7, result in words
From the text: In this experiment, the changes in the phosphorylation levels of STING and its downstream proteins TBK1 (TANK-binding kinase 1) and IRF3 (interferon regulatory factor 3) were detected by protein blotting to evaluate the agonistic effect of the test compounds on the STING signal pathway at the cellular level.
The Raw264.7 cells in the logarithmic phase were centrifuged, and resuspended in a cell culture solution to a density of 1.6×10^6 cells/mL. The cell suspension was inoculated into a 6-well cell culture plate (Corning) at 1 mL/well. The compound to be tested was diluted with a cell culture solution to 2× working solution concentration (control compounds 1 and 2: 60 μM; compound 8: 0.6 μM, 6 μM, and 60 μM; compounds 2, 4 and 6: 6 μM, 20 μM, and 60 μM). 1 mL of the diluted solution of the compound was added into a 6-well plate (1 mL of the culture solution containing 2% DMSO was added into the negative control well). The plate was placed in a cell incubator, and incubated for 3 hours. After the incubation, the cells were collected by centrifugation, lysed with 60 μL cell lysis buffer (CST) for 30 minutes, and centrifuged at 12000 rpm for 15 minutes. The supernatant was collected to determine the protein concentration, and then an appropriate amount of 5× protein loading buffer was added. The mixture was heated at 95° C. for 10 minutes to prepare a protein electrophoresis sample. Finally, protein blotting was performed to detect the phosphorylation level of the corresponding protein. The primary antibodies used in the protein blotting were purchased from CST: STING (D2P2F) rabbit mAb, Phospho-STING (Ser365) rabbit mAb, Phospho-IRF3 (Ser396) (D601M) rabbit mAb, IRF3 (D83B9) rabbit mAb, TBK1/NAK (D1B4) rabbit mAb, Phospho-TBK1/NAK (Ser172) (D52C2) XPV rabbit mAb, GAPDH (D16H11) rabbit mAb; and the secondary antibody horseradish peroxidase-conjugated goat anti-rabbit IgG (H+L) was purchased from Zsgb-bio.

hSTING protein = target: T1, hSTING protein (Homo sapiens, UniProt Q86WV6); assay: Human STING binding kit (HTRF) competitive binding assay; settings: for Ki: calculated as Ki=1/2*IC50 per kit instructions; for IC50: competition with d2-STING-ligand for 6×His-hSTING, HTRF, 3 h at 25° C.; for binding affinity to the hSTING protein: result in words
T1 construct: purchased Cisbio
T1 sequence (Q86WV6 whole entry H232R): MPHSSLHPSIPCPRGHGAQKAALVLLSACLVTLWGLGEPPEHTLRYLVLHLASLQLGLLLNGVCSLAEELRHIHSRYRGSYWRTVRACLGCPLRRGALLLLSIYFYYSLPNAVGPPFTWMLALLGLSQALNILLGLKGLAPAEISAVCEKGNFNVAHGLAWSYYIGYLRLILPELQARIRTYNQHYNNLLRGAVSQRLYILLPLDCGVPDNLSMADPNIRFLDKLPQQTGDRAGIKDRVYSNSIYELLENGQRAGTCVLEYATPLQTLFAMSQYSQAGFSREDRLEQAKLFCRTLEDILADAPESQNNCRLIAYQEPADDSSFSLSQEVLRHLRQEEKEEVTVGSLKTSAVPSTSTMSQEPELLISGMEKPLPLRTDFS
From the text: In this experiment, the capability of the compound and the specific ligand (d2-STING-ligand) in a Human STING binding kit from Cisbio for competitively binding to the 6×His-hSTING protein was detected using the Human STING binding kit (HTRF method), so as to evaluate the binding affinity between the compound to be tested and the hSTING protein.
The compound was gradiently diluted with a dilution buffer in the Human STING binding kit (the diluent buffer reagent) to obtain a 4× working concentration diluted solution. […] The 6×His-hSTING protein (50× in the mother liquor) was diluted to 1× with the detection buffer in the Human STING binding kit (the detection buffer reagent). 5 μl of the diluted solution was added into the corresponding wells of a 384-well plate, and the well with no protein and no compound was set as a negative control well (min), while the well with the protein and no compound was set as a positive control well (max). The d2-STING-ligand and Tb^3+-anti-6×His-antibody (both 50× in the mother liquor) were diluted to 1× with the detection buffer in the Human STING binding kit (the detection buffer reagent), and mixed uniformly at a ratio of 1:1. 10 μl of the mixed solution was added to the corresponding wells of a 384-well plate. The plate was sealed and incubated at room temperature (25° C.) for 3 h. A BMG microplate reader was used to read HTRF, and the ratio was calculated according to the following formula: Ratio=signal665nm/signal620nm×10000. […] IC50 was calculated through log(inhibitor) vs. response—Variable slope fitting by the Graphpad Prism software.

SMILES	EC50 [1] [nM]	Emax (OD620nm) [1] [OD620nm]	agonistic effect on the STING-mediated Interferon (IFN) signal pathway [1]	agonistic effect on the phosphorylation levels of STING, TBK1 and IRF3 [2]	Ki (hSTING protein) [nM]	IC50 (hSTING protein) [nM]	binding affinity to the hSTING protein (hSTING protein)
COc1cc2sc(C(=O)N(C)CCC(=O)O)cc2cc1OCCCOc1cc2sc(C(=O)CCC(=O)O)cc2cc1OC [Compound 4, 4-(6-(3-((2-((2-carboxyethyl)(methyl)carbamoyl)-6-methoxybenzo[b]thiophen-5-yl)oxy)propoxy)-5-methoxybenzo[b]thiophen-2-yl)-4-oxobutanoic acid]	35.5	1.97	strong agonistic effects	strong agonistic effects	16.1	32.2	strong binding affinity
COc1cc2sc(C(=O)CCC(=O)O)cc2cc1OCCCOc1cc2cc(C(=O)N(C)CCC(=O)O)sc2cc1OC [Compound 8, 4-(5-(3-((2-((2-carboxyethyl)(methyl)carbamoyl)-6-methoxybenzo[b]thiophen-5-yl)oxy)propoxy)-6-methoxybenzo[b]thiophen-2-yl)-4-oxobutanoic Acid]	55.3	1.73	strong agonistic effects	strong agonistic effects	0.069	0.139	strong binding affinity
COc1cc2sc(C(=O)CCC(=O)O)cc2cc1OCCCOc1cc2sc(C(=O)N(C)CCC(=O)O)cc2cc1OC [Compound 6, 4-(5-(3-((2-((2-carboxyethyl)(methyl)carbamoyl)-5-methoxybenzo[b]thiophen-6-yl)oxy)propoxy)-6-methoxybenzo[b]thiophen-2-yl)-4-oxobutanoic acid]	74.5	1.88	strong agonistic effects	strong agonistic effects	4.55	9.1	strong binding affinity
